# Laboratory results: PMC12040169 (PLOS Biology, 2025)
# Experiment: in vitro
# Conditions: human, hela cells, % viability
row,SMILES,"viability at 28.5 h, 10 µM [%]"
1,N#CCCn1cc(C(=O)N2CCOCC2)c(-c2cccc(Cl)c2)n1 [CBK306208],88.2
2,O=C(Nc1ccc(F)cc1)Nc1cccnc1Cl [CBK058509],90.4
3,CCN(CC(=O)NCc1cccnc1)S(=O)(=O)c1ccc(F)cc1 [CBK269503],85.3
4,O=C1NC(Nc2ccc(SCCN3CCOCC3)cc2)c2ccccc21 (stereo not shown) [CBK010123],93.6
5,O=C(CN1CCC(C(=O)NC(c2ccccc2)c2ccsc2)CC1)c1ccc(F)cc1 (stereo not shown) [CBK148432],86.9
6,Cc1cc(C)c(S(=O)(=O)Nc2nnc(C)s2)c(C)c1 [CBK045497],87.5
7,CC(C)(C)OC(=O)N1CCCN(Cc2nc(-c3cccnc3)no2)CC1 [CBK305309],97.2
8,CC(=O)ON=C1c2cc(S(=O)(=O)N(C)C)ccc2-c2ccc(S(=O)(=O)N(C)C)cc21 [CBK262807],87.1
9,CC(C)(C)c1ccc(S(=O)(=O)N2CCCCC2CCO)cc1[N+](=O)[O-] (stereo not shown) [CBK200067],93.9
10,O=C(CN1CCc2c([nH]c3ccccc23)C12CCN(Cc1ccc(F)cc1)C2)Nc1ccccc1 (stereo not shown) [CBK059450],96
11,CCOC(=O)C(NC(=O)c1cc[nH]n1)c1cccc(C)c1C (stereo not shown) [CBK304131],85.5
12,Cc1ccc(CNC(=O)Cc2ccc(-c3ccc(CN4CCC(C)CC4)cc3)nc2)cc1F [CBK158402],97.4
13,CC(=O)c1cc2c(cc1NC(=O)CSc1nc3ccccc3[nH]1)OCO2 [CBK266110],69.8
14,O=C(C(CO)c1ccccc1)N1CCC2(CCN(CCCCOc3ccccc3)C2)C1 (stereo not shown) [CBK161722],90
15,CCOC(=O)C1CCCCN1S(=O)(=O)c1ccc(Br)s1 (stereo not shown) [CBK096110],102
16,O=C(Cn1c(=O)[nH]c2c(oc3ccccc32)c1=O)Nc1ccccc1 [CBK287818],104
17,CCCc1c(C(=O)N2CCN(c3ncccn3)CC2)cnn1-c1cc(Cl)cc(Cl)c1 [CBK107383],102
18,CCOc1ccc(-c2ccnc(NCC(C)(C)CO)n2)cc1C(=O)O [CBK307530],88.6
19,Clc1cc(Nc2ccc3[nH]ccc3c2)n2nccc2n1 [CBK037009],84.7
20,O=C(NC(c1ccccc1)c1ccsc1)C1CCN(CCc2ccccc2)CC1 (stereo not shown) [CBK148433],98.1
21,Cn1ncc(N2CCC(CNC(=O)c3cc(F)ccc3Cl)C2)cc1=O (stereo not shown) [CBK307286],92.4
22,CN1C(=O)c2ccccc2C(=O)[C@@]2(C)CN(CC(C)(C)C)C[C@@H]12 [CBK283481],93.8

row,SMILES,"viability at 28.5 h, 10 µM [%]"
1,COC(=O)c1ccc(-c2ccc(F)cc2OC)nc1 [CBK149230],88.3
2,Cc1ccc(Oc2ccc([N+](=O)[O-])cc2F)c(Br)c1 [CBK002821],90.3
3,Cc1cccn2cc(CNC(=O)C(C)(C)C)nc12 [CBK304348],83.9
4,Cc1c(Cl)cccc1S(=O)(=O)Nc1nc(C(C)Sc2nccn2C)ns1 (stereo not shown) [CBK200052],88.5
5,CCNS(=O)(=O)C1CCN(c2cc(C#N)ccc2C(F)(F)F)C1 (stereo not shown) [CBK305402],96.2
6,COC(=O)c1ccccc1NC(=O)c1c(C)c(-c2ccc(C)cc2)nc2ccccc12 [CBK263641],94.9
7,CN(C)S(=O)(=O)N1CCN(c2ccc([N+](=O)[O-])c(NC3C4CC5CC(C4)CC3C5)c2)CC1 (stereo not shown) [CBK268986],102
8,CC(=O)Nc1ccc(OCC(O)Cn2nc(-c3ccco3)oc2=O)cc1 (stereo not shown) [CBK305615],97.9
9,O=C(O)/C=C/C(=O)NN1C(=O)c2ccccc2C1=O [CBK286962],86.9
10,Cc1c(Cl)cccc1NC(=O)C(=O)NCCCN1CCOCC1 [CBK263276],109
11,Cn1ccc2cc(-c3cn4ccnc4c(N4CCOCC4)n3)ccc21 [CBK066696],89.1
12,Cc1csc2c(C3CCCN(C(=O)c4ccncc4)C3)nc(C)n12 (stereo not shown) [CBK285213],100
13,O=C(OCc1ccc(S(=O)(=O)N2CCOCC2)cc1)c1cc(-c2ccccc2)nc2ccccc12 [CBK267411],89.6
14,Cc1ccc(OCCNC(=O)C(C)Cn2cccn2)cc1 (stereo not shown) [CBK283252],111
15,O=C(O)CC1C(=O)NCCN1C1Cc2ccccc2C1 (stereo not shown) [CBK270089],88.2
16,CCN(CC)CCOc1cc(=O)oc2ccccc12 [CBK022747C],105
17,CCOc1cc(C#N)cc(I)c1OCC(=O)O [CBK266326],96.9
18,O=C(O)CSc1nc2cc(Cl)c(Cl)cc2nc1N1CCCC1 [CBK107863],92.9
19,Cc1oc(C(=O)N2CCc3sccc3C2c2ccccc2)cc1CN1CCOCC1 (stereo not shown) [CBK285566],105
20,O=S(=O)(Nc1ccc2[nH]ncc2c1)c1ccc(Oc2ccccc2)cc1 [CBK062522],82.9
21,O=C(Nc1cc(Oc2cncc(Cl)c2)cc([N+](=O)[O-])c1)c1nn2c(C(F)(F)F)cc(-c3cccs3)nc2c1Cl [CBK262585],94.9
22,COc1ccccc1Nc1nc(N2CCOCC2)nc(N2CCOCC2)n1 [CBK287731],111

row,SMILES,"viability at 28.5 h, 10 µM [%]"
1,C[C@@H](c1ccccc1)n1c(=O)[nH]c2ncc(-c3cccc(/C=C/C(=O)O)c3)nc21 [CBK065040],106
2,COc1ccc2[nH]c3c(c2c1)CCOC31CCN(C(=O)Nc2ccc(C(C)C)cc2)CC1 [CBK047154],95.5
3,COc1cc(CO)cc(I)c1OCC(=O)Nc1ccccc1 [CBK265950],112
4,CCc1cn(CC(C(=O)OC)N(C)C)c(=O)[nH]c1=O (stereo not shown) [CBK289706],107
5,O=C(Cn1cccn1)NC(Cc1ccsc1)c1cccnc1 (stereo not shown) [CBK285396],97
6,CC(=O)NCC12CC3CC(C1)CC(C(=O)O)(C3)C2 [CBK286768],93.8
7,O=C(O)CCSCc1ccc([N+](=O)[O-])cc1 [CBK262359],103
8,Fc1cc(Br)ccc1COc1cccnc1Cl [CBK161281],68.4
9,CCC(CO)Nc1cncc(-c2ccc3c(c2)OCO3)n1 (stereo not shown) [CBK065970],98.4
10,Cc1ccc(-n2c(=O)[nH]c3c(C(N)=O)nc(CC(C)C)nc32)cc1 [CBK287294],102
11,COc1ccnc(Cn2ncc(N3CCCC3)cc2=O)c1OC [CBK306672],82.7
12,CC1CCCCC12NC(=O)N(Cc1nnc(-c3cccs3)o1)C2=O (stereo not shown) [CBK306205],82.9
13,CC(C)(C)c1ccc(N(C2CCNCC2)S(=O)(=O)c2ccc(Cl)cc2Cl)cc1 [CBK165067T],51
14,COc1ccccc1NC(=O)CSc1nnc(-c2ccncc2)o1 [CBK287743],87
15,COc1ccc(-c2ccccc2)cc1NCc1cc2cc(OC)c(OC)cc2[nH]c1=O [CBK286160],99.5
16,CCCNC(=O)CN(C)Cc1cn2cccc(C)c2n1 [CBK304800],85.2
17,O=C(NCc1ccco1)[C@@H]1C=CCN1C(=O)NCc1ccccc1 [CBK284293],93
18,Nc1nc(C2COc3ccccc3O2)ncc1S(=O)(=O)c1ccc(Cl)cc1 (stereo not shown) [CBK074808],96.2
19,O=C(NCCN1CCC(O)(c2ccc(F)cc2)CC1)C1CCCCC1 [CBK283165],106
20,O=C(Nc1ccnn1Cc1ccccc1)C1CC(c2cccc(F)c2)=NO1 (stereo not shown) [CBK297772],112
21,O=C(NCC1CCCO1)c1ccc(NC(=O)C2C3C=CC(C3)C2C(=O)O)cc1 (stereo not shown) [CBK266317],94.9
22,CC(C)CNc1nnc(-c2ccccc2[N+](=O)[O-])s1 [CBK076755],82.1

row,SMILES,"viability at 28.5 h, 10 µM [%]"
1,COCc1ccc(-c2nccnc2NS(=O)(=O)c2c(C)noc2C)cc1 [CBK049656],122
2,Cn1c2ccccc2c2nnc(NCCCCO)nc21 [CBK023366],98.8
3,CCOc1ccc(Cl)cc1CN(C)C(=O)NCC(c1ccco1)N(C)C (stereo not shown) [CBK307013],88
4,COc1ccc(NC2=CC(=O)CC(c3ccc(C)cc3)C2)c(OC)c1 (stereo not shown) [CBK264845],111
5,CCOC(=O)Cn1c(CN2CCC(Cc3ccccc3)CC2)nc2c1c(=O)n(C)c(=O)n2C [CBK269454],89.8
6,Cc1cc2c(cc1C)N(C(=O)CSc1nc3ccccc3[nH]1)C(C)(C)CC2C (stereo not shown) [CBK264144],98.7
7,CC(Oc1cccc(Cl)c1)n1cnnc1 (stereo not shown) [CBK022246],100
8,CSc1nnc(C2CCCN2C(=O)[C@@H]2C[C@@H]3C=C[C@H]2C3)n1C (stereo partly shown) [CBK282012],79.8
9,COc1ccc(-c2oc(C(=O)N(C)C)c(C(=O)O)c2-c2ccc(OC)cc2)cc1 [CBK001958],90.5
10,Oc1cccc(Sc2cncc(N3CCCC3)n2)c1 [CBK093796],106
11,O=C(Nc1ccc(Cl)c(Cl)c1)c1cnc2sccn2c1=O [CBK287449],83.3
12,Cc1cc(O)ccc1Nc1cc(-c2cc3ccccc3s2)ncn1 [CBK091057],87
13,CCC(CC(=O)NCc1c(C)n[nH]c1C)c1c[nH]c2ccccc12 (stereo not shown) [CBK282651],87.1
14,Cc1c(NC(=O)CN(c2ccccc2)S(=O)(=O)N(C)C)cccc1[N+](=O)[O-] [CBK269012],106
15,CCn1nc(C)c(-c2cncn2CCn2nc(C)c(C)c2C)c1C [CBK281782],98.8
16,CCCS(=O)(=O)N1CCN(Cc2cc(Br)ccc2O)CC1 [CBK264165G],102
17,O=C(NC(=S)Nc1ccc2oc(-c3cncc(Br)c3)nc2c1)c1cc([N+](=O)[O-])ccc1N1CCOCC1 [CBK268864],118
18,CSc1ncc(Cl)c(C(=O)NCCc2ccc(S(N)(=O)=O)cc2)n1 [CBK268679],104
19,Cc1cc2c(cc3c(=O)n(CC(=O)N4CCCC4)nc(C)n32)o1 [CBK283631],93.1
20,O=C(NCc1nnc(-c2cccs2)o1)c1cccc(-c2ccc(F)cc2)c1 [CBK286296],86.9
21,CC1CC1C(=O)N1CCC(c2nc3ccccc3cc2N)CC1 (stereo not shown) [CBK285090],98.8
22,COc1cc(C(=O)N2CCC3(CCN(C(=O)Cc4c[nH]c5ccccc45)C3)C2)cc(OC)c1OC (stereo not shown) [CBK131448],86.7
